For experiment [1], the target named is T1, human GPR119 (Homo sapiens, UniProt Q8TDV5).
T1 sequence (Q8TDV5 1-335): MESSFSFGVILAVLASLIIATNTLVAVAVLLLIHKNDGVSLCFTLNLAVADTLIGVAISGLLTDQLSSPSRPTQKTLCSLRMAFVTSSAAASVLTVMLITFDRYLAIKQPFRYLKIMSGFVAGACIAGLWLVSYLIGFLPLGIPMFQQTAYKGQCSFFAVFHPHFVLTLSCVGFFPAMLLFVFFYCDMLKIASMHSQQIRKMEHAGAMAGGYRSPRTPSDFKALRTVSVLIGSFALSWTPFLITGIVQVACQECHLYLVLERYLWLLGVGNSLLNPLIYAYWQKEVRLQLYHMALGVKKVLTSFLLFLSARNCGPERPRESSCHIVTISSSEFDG
In words: β-lactamase reporter functional assay for GPR119 agonists (hGPR119 HEK293-CRE beta-lactamase cells). In kind it is cell-based. Further details: host or cells: hGPR119-HEK293-CRE-beta-lactamase cells; Emax: dose or concentration left out as unconfirmed. To be noted: percent of maximal activity relative to standard GPR119 agonist (WO2005121121) at 10 micromolar; read-out: Human B-lactamase Intrinsic Activity*. The protocol:
The assay for GPR119 agonists utilizes a cell-based (hGPR119HEK293-CRE beta-lactamase) reporter construct where agonist activation of human GPR119 is coupled to beta-lactamase production via a cyclic AMP response element (CRE). GPR119 activity is then measured utilizing a FRET-enabled beta-lactamase substrate, CCF4-AM (Live Blazer FRET-B/G Loading kit, Invitrogen cat #K1027). […] Fluorescence was measured on an EnVision fluorimetric plate reader, excitation 405 nm, emission 460 nm/535 nm. EC50 determinations were made from agonist-response curves analyzed with a curve fitting program using a 4-parameter logistic dose-response equation.

Experiment [2] addresses T1, human GPR119. Description: HTRF cAMP cell-based GPR119 agonist assay (hGPR119 HEK-CRE beta-lactamase cells). The following applies: percent of maximal activity relative to standard GPR119 agonist (WO2005121121) at 10 micromolar. The arrangement: host or cells: hGPR119-HEK293-CRE-beta-lactamase cells. The protocol: GPR119 agonist activity was also determined with a cell-based assay utilizing an HTRF (Homogeneous Time-Resolved Fluorescence) cAMP detection kit (cAMP dynamic 2 Assay Kit; Cis Bio cat #62AM4PEC) that measures cAMP levels in the cell. The method is a competitive immunoassay between native cAMP produced by the cells and the cAMP labeled with the dye d2. The tracer binding is visualized by a Mab anti-cAMP labeled with Cryptate. The specific signal (i.e. energy transfer) is inversely proportional to the concentration of cAMP in either standard or sample.
Specifically, hGPR119HEK-CRE beta-lactamase cells (Invitrogen 2.5×10^7/mL; the same cell line used in the beta-lactamase assay described above) are removed from cryopreservation and diluted in growth medium (Dulbecco's modified Eagle medium high glucose (DMEM; Gibco Cat #11995-065), 1% charcoal dextran treated fetal bovine serum (CD serum; HyClone Cat # SH30068.03), 1×MEM Nonessential amino acids (Gibco Cat #15630-080) and 25 mM HEPES pH 7.0 (Gibco Cat #15630-080)). The cell concentration was adjusted to 1.5×10^5 cells/mL and 30 mLs of this suspension was added to a T-175 flask and incubated at 37 degrees Celsius in a humidified environment in 5% carbon dioxide. […]
Varying concentrations of each compound to be tested were diluted in assay buffer containing 3-isobutyl-1-methylxanthin (IBMX; Sigma cat #15879) and added to the assay plate wells in a volume of 2 microL (final IBMX concentration was 400 microM and final DMSO concentration was 0.58%). […] The plates were then incubated at room temperature and after 60 minutes, changes in the HTRF signal were read with an Envision 2104 multilabel plate reader using excitation of 330 nm and emissions of 615 and 665 nm. Raw data were converted to nM cAMP by interpolation from a cAMP standard curve (as described in the manufacturer's assay protocol) and EC50 determinations were made from an agonist-response curves analyzed with a curve fitting program using a 4-paramter logistic dose response equation.

As for `CC(C)OC(=O)N1C[C@H]2COC[C@@H](C1)[C@@H]2Oc1cc(N2CCc3cc(S(C)(=O)=O)ccc32)ncn1` [Example 2, Isopropyl 9-syn-({6-[5-(methylsulfonyl)-2,3-dihydro-1H-indol-1-yl]pyrimidin-4-yl}oxy)-3-oxa-7-azabicyclo[3.3.1]nonane-7-carboxylate], at human GPR119 [1], the Emax stood at 109%.

Turning to `CC(C)OC(=O)N1CCC(Oc2cc(N3CCc4cc(S(C)(=O)=O)ccc43)ncn2)CC1` [Example 3, Isopropyl 4-({6-[5-(methylsulfonyl)-2,3-dihydro-1H-indol-1-yl]pyrimidin-4-yl}oxy)piperidine-1-carboxylate], the “Human cAMP Intrinsic Activity*” value at human GPR119 [2] was found to be 107%.

For the origin of these results see patent US20120052130A1, “GPR 119 MODULATORS” (Pfizer Inc., priority 2009, published 2012).
